Consider twelve compounds from US20240228469A1, “PCSK9 INHIBITORS AND METHODS OF USE THEREOF” (AstraZeneca AB, priority 2022, published 2024).

In this assay the target is PCSK9 (Homo sapiens, UniProt Q8NBP7). Briefly: Assay 2 Biophysical human PCSK9 assay (SPR, Biacore). The note with it: single-cycle kinetics, 30° C., geometric mean, read-out: Assay 2 (PCSK9 BIAcore DBA Cr) GMean Kd. The assay is classed as binding. The arrangement: biotinylated human PCSK9 (31-692)-Avi-His6; His6 (C). On the procedure:
The SPR binding experiments were performed on a Biacore S200 optical biosensor unit at 30° C. A Series S Sensor Chip SA that is designed to bind biotinylated molecules for interaction analysis in Biacore systems was equilibrated at room temperature prior to use. The running buffer for protein tethering and subsequent ligand binding experiments was 10 mM HEPES pH 7.4, 150 mM NaCl, 0.05% (v/v) Tween 20 pH 7.4.
For the surface tethering of PCSK9, biotinylated human PCSK9 (31-692)-Avi-His6 at a concentration of 0.5 mg/mL was used. Prior to the surface tethering, the surface was exposed to a solution of 50 mM NaOH, 500 mM NaCl via 3 consecutive injections of this solution with a contact time of 60 s and a flowrate of 10 μL min^−1 to remove non-conjugated streptavidin. The PCSK9 protein was diluted to a concentration of 20 μg/mL using running buffer and injected with a contact time of 180-300 s and a flowrate of 10 μL min^−1 over a single flow channel (typically flow channel 2 or flow channel 4) with the aim to achieve protein capture levels of >5000 response units (RU). Remaining biotin binding sites were blocked via 2 consecutive injections of a 10 μM D-biotin solution in running buffer with a contact time of 60 s and a flowrate of 10 μL min^−1 over all flow-channels. Flow-channels 1 and 3 typically served as a reference surface throughout the subsequent binding experiments.
The binding experiments were all performed at a flow rate of 30 PL min^−1 and by employing the method of single-cycle kinetics. This approach involves the sequential injection of a compound concentration series without regeneration steps. A contact time between 90-150 s was selected, which was followed by a 40 min dissociation phase to allow for a proper estimation of the dissociation rate constant. Test compounds were delivered in DMSO at a concentration of 10 mM and a digital dispenser HP D300 was used to set up the compound concentration series using 6 concentrations. The tested concentrations have been 30, 100, 300, 1000, 3000 and 10000 nM. Prior to injecting any compound, the surfaces were equilibrated by injecting running buffer over them in three separate pulses. The data collection rate was set to 10 Hz.
The raw sensorgrams of the compound injections were first subjected to reference subtraction (subtracting the signal from flow channel 1 and/or 3 from the signal from channels 2 and/or 4 respectively) and then blank subtraction (subtracting the signal from injecting DMSO controls from the reference subtracted data). The resulting double-referenced sensorgrams were then fitted using a 1:1 binding interaction model using the manufactures software package to extract kinetic- and affinity data. Active compounds have been defined by creating a detectable binding signal at the highest compound concentration ([…]) of 3 RUs. Kinetic- and affinity data on active compounds are only provided for those compounds where the binding signal at the highest compound concentration ([…]) is 50% of the theoretical maximum binding signal for a 1:1 binding interaction (Rmax, typically between 15-20 RUs) in order to enable a proper fitting of the data.

The structures appear in SMILES notation.

Chain of PCSK9 (Q8NBP7 31-692): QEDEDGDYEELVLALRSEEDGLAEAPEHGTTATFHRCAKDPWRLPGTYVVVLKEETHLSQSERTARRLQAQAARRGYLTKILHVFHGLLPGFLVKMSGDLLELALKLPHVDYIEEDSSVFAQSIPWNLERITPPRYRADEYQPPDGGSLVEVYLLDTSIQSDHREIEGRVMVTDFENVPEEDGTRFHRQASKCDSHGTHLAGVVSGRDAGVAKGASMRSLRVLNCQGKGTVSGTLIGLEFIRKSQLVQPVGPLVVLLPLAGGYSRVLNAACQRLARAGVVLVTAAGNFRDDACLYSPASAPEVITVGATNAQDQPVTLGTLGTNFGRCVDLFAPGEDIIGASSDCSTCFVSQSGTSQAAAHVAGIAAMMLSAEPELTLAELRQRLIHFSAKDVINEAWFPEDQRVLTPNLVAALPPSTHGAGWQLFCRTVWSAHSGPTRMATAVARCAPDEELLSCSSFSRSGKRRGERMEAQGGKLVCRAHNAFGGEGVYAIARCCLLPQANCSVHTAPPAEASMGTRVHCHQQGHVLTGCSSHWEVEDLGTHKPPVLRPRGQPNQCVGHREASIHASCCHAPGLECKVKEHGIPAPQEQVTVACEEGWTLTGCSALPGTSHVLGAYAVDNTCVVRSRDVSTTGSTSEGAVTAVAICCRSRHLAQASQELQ

For `O=c1c(Cl)cccn1-c1ccc(N[C@H]2CC[C@H](Nc3ncc(C4CC4)nn3)C2)nc1` [Example 55, 3-Chloro-6′-(((1S,3S)-3-((6-cyclopropyl-1,2,4-triazin-3-yl)amino)cyclopentyl)amino)-2H-[1,3′-bipyridin]-2-one], the Kd (usually the free concentration of one partner at which half of the binding sites on the other are occupied at equilibrium, for simple one-to-one binding) was 0.4 nM.
Turning to `N#Cc1cccn(-c2ccc(N[C@H]3CC[C@H](Nc4ncc(C5CC5)nn4)C3)nc2)c1=O` [Example 58, 6′-(((1S,3S)-3-((6-Cyclopropyl-1,2,4-triazin-3-yl)amino)cyclopentyl)amino)-2-oxo-2H-[1,3′-bipyridine]-3-carbonitrile], the Kd was determined as 2.2 nM.
The value for `Cc1cnc(N[C@H]2CC[C@H](Nc3ccc(-n4cccc(-c5cnn(C)c5)c4=O)cn3)C2)nn1` [Example 198, 6′-(((1S,3S)-3-((6-Methyl-1,2,4-triazin-3-yl)amino)cyclopentyl)amino)-3-(1-methyl-1H-pyrazol-4-yl)-2H-[1,3′-bipyridin]-2-one] was 3.8 nM.
For `O=c1c(OC(F)(F)F)cccn1-c1ccc(N[C@H]2CC[C@H](Nc3ncc(C4CC4)nn3)C2)nc1` [Example 52, 6′-(((1S,3S)-3-((6-Cyclopropyl-1,2,4-triazin-3-yl)amino)cyclopentyl)amino)-3-(trifluoromethoxy)-2H-[1,3′-bipyridin]-2-one], the Kd was determined as 0.7 nM.
The value for `Cc1cnc(N[C@H]2CC[C@H](Nc3ccc(-n4ccccc4=O)cn3)C2)nn1` [Example 67, 6′-(((1S,3S)-3-((6-Methyl-1,2,4-triazin-3-yl)amino)cyclopentyl)amino)-2H-[1,3′-bipyridin]-2-one] was 17 nM; that for `COc1cccn(-c2ccc(N[C@H]3CC[C@H](Nc4ncc(C5CC5)nn4)C3)nc2)c1=O` [Example 64, 6′-(((1S,3S)-3-((6-Cyclopropyl-1,2,4-triazin-3-yl)amino)cyclopentyl)amino)-3-methoxy-2H-[1,3′-bipyridin]-2-one] was 0.4 nM.
Under `Cc1cnc(N[C@H]2CC[C@H](Nc3ccc(-n4c(=O)ccc5cccnc54)cn3)C2)nn1` [Example 197, 1-(6-(((1S,3S)-3-((6-Methyl-1,2,4-triazin-3-yl)amino)cyclopentyl)amino)pyridin-3-yl)-1,8-naphthyridin-2(1H)-one] stands 2.3 nM; under `Cc1cnc(N[C@H]2CC[C@H](Nc3ccc(-n4cccc(C(F)(F)F)c4=O)cn3)C2)nn1` [Example 135, 6′-(((1S,3S)-3-((6-Methyl-1,2,4-triazin-3-yl)amino)cyclopentyl)amino)-3-(trifluoromethyl)-2H-[1,3′-bipyridin]-2-one], 3.9 nM.
Under `Cn1c(=O)n(-c2ccc(N[C@H]3CC[C@H](Nc4ncc(C5CC5)nn4)C3)nc2)c2ccc(C(=O)O)cc21` [Example 121, 1-(6-(((1S,3S)-3-((6-Cyclopropyl-1,2,4-triazin-3-yl)amino)cyclopentyl)amino)pyridin-3-yl)-3-methyl-2-oxo-2,3-dihydro-1H-benzo[d]imidazole-5-carboxylic acid] stands 1.6 nM.
Regarding `Cc1cnc(N[C@H]2CC[C@H](Nc3ccc(-n4cccc(C)c4=O)cn3)C2)nn1` [Example 131, 3-Methyl-6′-(((1S,3S)-3-((6-methyl-1,2,4-triazin-3-yl)amino)cyclopentyl)amino)-2H-[1,3′-bipyridin]-2-one], the Kd came to 2.4 nM.
Turning to `Cc1cnc(N[C@H]2CC[C@H](Nc3ccc(-n4cccc(Cl)c4=O)cn3)C2)nn1` [Example 129, 3-Chloro-6′-(((1S,3S)-3-((6-methyl-1,2,4-triazin-3-yl)amino)cyclopentyl)amino)-2H-[1,3′-bipyridin]-2-one], the Kd was 1.3 nM.
The value for `Cn1c(=O)n(-c2ccc(N[C@H]3CC[C@H](Nc4ncc(C5CC5)nn4)C3)nc2)c2cc(C#N)ccc21` [Example 116, 3-(6-(((1S,3S)-3-((6-Cyclopropyl-1,2,4-triazin-3-yl)amino)cyclopentyl)amino)pyridin-3-yl)-1-methyl-2-oxo-2,3-dihydro-1H-benzo[d]imidazole-5-carbonitrile] was 0.3 nM.
